Results as given in patent US8748483B2, “Use of substituted pyranone acid derivatives for the treatment of metabolic syndrome” (SANOFI, priority 2007, dated 2014).
Values belong to the molecule of their own block, whether it stands above or below them.

Assays:
[1] = target: T1, GPCR HM74A (niacin receptor) (Homo sapiens, UniProt Q8TDS4); experiment: FLIPR in vitro functional assay, intracellular Ca2+ in recombinant HEK293 cells expressing HM74A and Gα6qi4myr; assay type: cell-based; settings: 100% = 1 μM niacin
T1 construct: expressed in transfected cells; host or cells: HEK293
T1 sequence (Q8TDS4 whole entry): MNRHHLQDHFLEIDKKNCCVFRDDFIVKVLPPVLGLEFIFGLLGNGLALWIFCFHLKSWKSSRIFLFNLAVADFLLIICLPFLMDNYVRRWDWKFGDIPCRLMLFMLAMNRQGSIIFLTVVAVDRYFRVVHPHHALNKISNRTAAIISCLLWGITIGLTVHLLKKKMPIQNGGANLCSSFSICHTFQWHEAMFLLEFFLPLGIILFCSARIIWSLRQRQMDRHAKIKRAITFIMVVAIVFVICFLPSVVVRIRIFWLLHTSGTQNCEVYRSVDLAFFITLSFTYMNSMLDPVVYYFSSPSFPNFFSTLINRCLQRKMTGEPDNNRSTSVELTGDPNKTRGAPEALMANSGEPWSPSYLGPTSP
Procedure: Function-testing assays were carried out by means of the FLIPR technique (“Fluorescence Imaging Plate Reader”, Molecular Devices Corp.). For this purpose, agonist-induced changes in the intracellular concentration of Ca^2+ in recombinant HEK293 cells which express both the GPCR HM74A (niacin receptor) and the hybrid G-protein Gα6qi4myr (see, for example, DE patent application 10033353) were determined.
For the investigations, cells were seeded into 96-well microtiter plates (60 000 cells/well) and allowed to grow overnight. The medium was removed and the cells were incubated in buffer which contained the fluorescent dye Fluo-4. After this loading with dye, the cells were washed, test substance was added, and changes in the intracellular Ca^2+ concentration were measured in the FLIPR apparatus. Results have been shown as percentage change relative to the control (0%: no test substance added; 100%:1 μM reference agonist niacin added), used to calculate dose/activity plots and EC50 values determined.

lipolysis = experiment: Inhibition of lipolysis in the whole animal after p.o. administration (FFA, glycerol, triglycerides in blood); assay type: in vivo, Wistar rats
Procedure: The effect was tested on the whole animal (mouse, rat, hamster or dog), after a fasting period (e.g. of about 16 hours the substance is administered (e.g. p.o., iv., i.p., s.c.) and, with or without additional stimulation of endogenous lipolysis (e.g. by a bolus injection of 2 mg/kg i.p. isoprenaline), the effect of the test substance on lipolysis is determined on the basis of the liberated free fatty acids (FFA), glycerol and triglycerides by obtaining a blood sample (e.g. by retroorbital blood sampling) e.g. 15 min, 30, 60, 120 etc minutes after p.o. administration, and analyzing by standard methods of clinical chemistry (e.g. L. Thomas: Labor and Diagnose, 2nd edition, Medizinische Verlagsgesellschaft, Marburg/L. 1984; ISBN 3-921320-10-9)). The inhibition of lipolysis by the inhibitors is analyzed by comparing with the rate of lipolysis in correspondingly treated control animals.

[2] = 10 mg/kg po, 30 min, Wistar rats
[3] = 10 mg/kg po, 60 min, Wistar rats
[4] = 10 mg/kg po, 120 min, Wistar rats
[5] = 10 mg/kg po, time 0, Wistar rats
[6] = 1 mg/kg po, 30 min, Wistar rats
[7] = 1 mg/kg po, 60 min, Wistar rats
[8] = 1 mg/kg po, 120 min, Wistar rats
[9] = 1 mg/kg po, time 0, Wistar rats
[10] = 3 mg/kg po, 15 min, Wistar rats
[11] = 3 mg/kg po, 30 min, Wistar rats
[12] = 3 mg/kg po, 60 min, Wistar rats
[13] = 3 mg/kg po, 120 min, Wistar rats
[14] = 3 mg/kg po, time 0, Wistar rats

Structure (SMILES): CC(C)COc1coc(C(=O)O)cc1=O [Example 26]
EC50 [1]: 45.3 µM

Structure (SMILES): O=C(O)c1cc(=O)c(OCc2ccc(C(F)(F)F)cc2)co1 [Example 29]
EC50 [1]: 45.1 µM

Structure (SMILES): C=CCOc1coc(C(=O)O)cc1=O [Example 4]
EC50 [1]: 29.9 µM

Structure (SMILES): O=C(O)c1cc(=O)c(OCc2ccc(F)cc2)co1 [Example 12]
EC50 [1]: 49.5 µM

Structure (SMILES): CCCCOc1coc(C(=O)O)cc1=O [Example 6]
EC50 [1]: 52.9 µM

Structure (SMILES): CCCCCOc1coc(C(=O)O)cc1=O [Example 5]
EC50 [1]: 1.2 µM

Structure (SMILES): CCc1ccc(COc2coc(C(=O)O)cc2=O)cc1 [Example 30]
EC50 [1]: 3.24 µM

Structure (SMILES): O=C(O)c1cc(=O)c(OCc2ccc(Cl)cc2)co1 [Example 31]
EC50 [1]: 7.43 µM

Structure (SMILES): N#Cc1ccc(COc2coc(C(=O)O)cc2=O)cc1 [Example 10]
EC50 [1]: 14.7 µM

Structure (SMILES): Cc1ccc(COc2coc(C(=O)O)cc2=O)cc1 [Example 2, 5-(4-methylbenzyloxy)-4-oxo-4H-pyran-2-carboxylic acid]
EC50 [1]: 4.12 µM

Structure (SMILES): CCCc1oc(C(=O)O)cc(=O)c1OCc1ccc(C#N)cc1 [Example 22]
EC50 [1]: 45 µM

Structure (SMILES): O=C(O)c1cc(=O)c(OCc2ccc(OC(F)(F)F)cc2)co1 [Example 33]
EC50 [1]: 22.4 µM

Structure (SMILES): N#Cc1cccc(COc2coc(C(=O)O)cc2=O)c1 [Example 15]
EC50 [1]: 67.1 µM

Structure (SMILES): CC(C)Oc1coc(C(=O)O)cc1=O [Example 27]
EC50 [1]: 4.61 µM

Structure (SMILES): O=C(O)c1cc(=O)c(OCCCF)co1 [Example 25]
EC50 [1]: 0.76 µM

Structure (SMILES): C/C=C/c1oc(C(=O)O)cc(=O)c1OCC [Example 20]
EC50 [1]: 0.73 µM

Structure (SMILES): CC(C)c1ccc(COc2coc(C(=O)O)cc2=O)cc1 [Example 32]
EC50 [1]: 1.48 µM

Structure (SMILES): O=C(O)c1cc(=O)c(OCc2ccc([N+](=O)[O-])cc2)co1 [Example 9]
EC50 [1]: 43.4 µM

Structure (SMILES): O=C(O)c1cc(=O)c(OCc2cccc([N+](=O)[O-])c2)co1 [Example 8]
EC50 [1]: 36.8 µM

Structure (SMILES): O=C(O)c1cc(=O)c(OCc2ccc(OC(F)F)cc2)co1 [Example 28]
EC50 [1]: 1.81 µM

Structure (SMILES): O=C(O)c1cc(=O)c(OCc2cccc(F)c2)co1 [Example 7]
EC50 [1]: 62.8 µM

Structure (SMILES): CCCc1oc(C(=O)O)cc(=O)c1OCc1ccc(C)cc1 [Example 21, 5-(4-methylbenzyloxy)-4-oxo-6-propyl-4H-pyran-2-carboxylic acid]
EC50 [1]: 4.4 µM

Structure (SMILES): C/C=C/c1oc(C(=O)O)cc(=O)c1OCc1ccc([N+](=O)[O-])cc1 [Example 17]
EC50 [1]: 0.24 µM

Structure (SMILES): CCCCCCOc1coc(C(=O)O)cc1=O [Example 23]
EC50 [1]: 34.2 µM

Structure (SMILES): C/C=C/c1oc(C(=O)O)cc(=O)c1OCc1ccc(C)cc1 [Example 16, 5-(4-methylbenzyloxy)-4-oxo-6-propenyl-4H-pyran-2-carboxylic acid]
EC50 [1]: 0.1 µM

Structure (SMILES): C/C=C/c1oc(C(=O)O)cc(=O)c1OCc1ccc(C#N)cc1 [Example 18]
EC50 [1]: 0.36 µM

Structure (SMILES): O=C(O)c1cc(=O)c(OCc2cccc(Cl)c2)co1 [Example 13]
EC50 [1]: 19.5 µM

Structure (SMILES): C/C=C/c1oc(C(=O)O)cc(=O)c1OCCCCC [Example 19]
EC50 [1]: 0.39 µM

Structure (SMILES): Cc1cc(C)cc(COc2coc(C(=O)O)cc2=O)c1 [Example 11]
EC50 [1]: 31.2 µM

Structure (SMILES): O=C(O)c1cc(=O)c(OCc2ccccc2F)co1 [Example 14]
EC50 [1]: 12.1 µM

Structure (SMILES): O=C(O)c1cc(=O)cco1 [Example 1]
EC50 [1]: 0.09 µM | lipolysis (reduction in FFA, glycerol and triglycerides) (lipolysis; 3 mg/kg po): distinctly reduced | FFA (lipolysis; [10]): 0.22 mmol/L | Glycerol (lipolysis; [10]): 55 µmol/L | Triglycerides (lipolysis; [10]): 0.48 mmol/L | FFA (lipolysis; [11]): 0.14 mmol/L | Glycerol (lipolysis; [11]): 43 µmol/L | Triglycerides (lipolysis; [11]): 0.28 mmol/L | FFA (lipolysis; [12]): 0.16 mmol/L | Glycerol (lipolysis; [12]): 43 µmol/L | Triglycerides (lipolysis; [12]): 0.21 mmol/L | FFA (lipolysis; [13]): 0.28 mmol/L | Glycerol (lipolysis; [13]): 74 µmol/L | Triglycerides (lipolysis; [13]): 0.25 mmol/L | FFA (lipolysis; [14]): 0.55 mmol/L | Glycerol (lipolysis; [14]): 117 µmol/L | Triglycerides (lipolysis; [14]): 0.53 mmol/L

Structure (SMILES): O=C(O)c1cc(=O)c(OCc2ccccc2)co1 [Example 3]
EC50 [1]: 28.8 µM

Structure (SMILES): O=C(O)c1cc(=O)c(OCC(F)(F)F)co1 [Example 24]
EC50 [1]: 1 µM

Now from value to molecule, other results behind:

EC50 [1]: 0.31 µM
Structure (SMILES): N#Cc1ccc(C(=O)Oc2coc(C(=O)O)cc2=O)cc1 [Example 34]

EC50 [1]: 0.01 µM
Structure (SMILES): CCCCCc1coc(C(=O)O)cc1=O [Example 46]

EC50 [1]: 6.87 µM
Structure (SMILES): CC(C)OC(=O)/C=C/c1coc(C(=O)O)cc1=O [Example 41]

EC50 [1]: 0.22 µM
Structure (SMILES): CC(C)Cc1coc(C(=O)O)cc1=O [Example 51]

EC50 [1]: 4.83 µM
Structure (SMILES): Cc1ccc(/C=C/c2coc(C(=O)O)cc2=O)cc1 [Example 44]

EC50 [1]: 0.07 µM
Structure (SMILES): C/C=C/c1oc(C(=O)O)cc(=O)c1OCC(F)(F)F [Example 36]

EC50 [1]: 0.05 µM
Structure (SMILES): CCCc1coc(C(=O)O)cc1=O [Example 48, 5-propyl-4-oxo-4H-pyran-2-carboxylic acid]
lipolysis (reduction in FFA, glycerol and triglycerides) (lipolysis; 10 mg/kg po): distinctly reduced | FFA (lipolysis; [2]): 0.19 mmol/L | Glycerol (lipolysis; [2]): 35 µmol/L | Triglycerides (lipolysis; [2]): 0.36 mmol/L | FFA (lipolysis; [3]): 0.19 mmol/L | Glycerol (lipolysis; [3]): 26 µmol/L | Triglycerides (lipolysis; [3]): 0.25 mmol/L | FFA (lipolysis; [4]): 0.16 mmol/L | Glycerol (lipolysis; [4]): 24 µmol/L | Triglycerides (lipolysis; [4]): 0.27 mmol/L | FFA (lipolysis; [5]): 0.51 mmol/L | Glycerol (lipolysis; [5]): 100 µmol/L | Triglycerides (lipolysis; [5]): 0.41 mmol/L

EC50 [1]: 1.19 µM
Structure (SMILES): COC(=O)/C=C/c1coc(C(=O)O)cc1=O [Example 39]

EC50 [1]: 1.19 µM
Structure (SMILES): CCOC(=O)/C=C/c1coc(C(=O)O)cc1=O [Example 40, 5-((E)-2-ethoxycarbonylvinyl)-4-oxo-4H-pyran-2-carboxylic acid]

EC50 [1]: 0.01 µM
Structure (SMILES): CCCCc1coc(C(=O)O)cc1=O [Example 47]
lipolysis (reduction in FFA, glycerol and triglycerides) (lipolysis; 1 mg/kg po): distinctly reduced | FFA (lipolysis; [6]): 0.25 mmol/L | Glycerol (lipolysis; [6]): 41 µmol/L | Triglycerides (lipolysis; [6]): 0.25 mmol/L | FFA (lipolysis; [7]): 0.37 mmol/L | Glycerol (lipolysis; [7]): 55 µmol/L | Triglycerides (lipolysis; [7]): 0.37 mmol/L | FFA (lipolysis; [8]): 0.41 mmol/L | Glycerol (lipolysis; [8]): 70 µmol/L | Triglycerides (lipolysis; [8]): 0.41 mmol/L | FFA (lipolysis; [9]): 0.84 mmol/L | Glycerol (lipolysis; [9]): 162 µmol/L | Triglycerides (lipolysis; [9]): 0.84 mmol/L

EC50 [1]: 1.19 µM
Structure (SMILES): Cc1ccc(C(=O)Oc2coc(C(=O)O)cc2=O)cc1 [Example 35]

EC50 [1]: 66.7 µM
Structure (SMILES): CCCc1cc(=O)cc(C(=O)O)o1 [Example 37, 6-propyl-4-oxo-4H-pyran-2-carboxylic acid]

EC50 [1]: 0.21 µM
Structure (SMILES): CC(C)CCc1coc(C(=O)O)cc1=O [Example 49, 5-(3-methylbutyl)-4-oxo-4H-pyran-2-carboxylic acid]

EC50 [1]: 6.6 µM
Structure (SMILES): C=C(CCC)c1coc(C(=O)O)cc1=O [Example 42]

EC50 [1]: 10.8 µM
Structure (SMILES): O=C(O)c1cc(=O)c(/C=C/CCc2ccccc2)co1 [Example 45]

EC50 [1]: 1.03 µM
Structure (SMILES): CCC/C=C/c1coc(C(=O)O)cc1=O [Example 43]

EC50 [1]: 0.14 µM
Structure (SMILES): C/C=C/c1oc(C(=O)O)cc(=O)c1CCCC [Example 38]

EC50 [1]: 2.69 µM
Structure (SMILES): CC(C)c1coc(C(=O)O)cc1=O [Example 52]

EC50 [1]: 0.16 µM
Structure (SMILES): CCC(C)c1coc(C(=O)O)cc1=O (centres unmarked) [Example 50]
lipolysis (reduction in FFA, glycerol and triglycerides) (lipolysis; 3 mg/kg po): distinctly reduced | FFA (lipolysis; [10]): 0.34 mmol/L | Glycerol (lipolysis; [10]): 67 µmol/L | Triglycerides (lipolysis; [10]): 0.39 mmol/L | FFA (lipolysis; [11]): 0.43 mmol/L | Glycerol (lipolysis; [11]): 82 µmol/L | Triglycerides (lipolysis; [11]): 0.36 mmol/L | FFA (lipolysis; [12]): 0.50 mmol/L | Glycerol (lipolysis; [12]): 86 µmol/L | Triglycerides (lipolysis; [12]): 0.58 mmol/L | FFA (lipolysis; [13]): 0.52 mmol/L | Glycerol (lipolysis; [13]): 101 µmol/L | Triglycerides (lipolysis; [13]): 0.71 mmol/L | FFA (lipolysis; [14]): 0.64 mmol/L | Glycerol (lipolysis; [14]): 127 µmol/L | Triglycerides (lipolysis; [14]): 0.47 mmol/L
